Reference: patent US20250214991A1 (Oncopia Therapeutics, Inc. d/b/a/ SK Life Science Labs, priority 2022, published 2025)

Assays:
CRBN/DDB1 = CRBN/DDB1 (Homo sapiens (Human), UniProt Q96SW2); assay: IC50 measurements for binding to CRBN/DDB1 (HTRF); settings: His tagged CRBN+DDB, Cy5-labeled Thalidomide probe, one hour
How it was run: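 Serially diluted compounds compete with a Cy5-labeled thalidomide tracer (60 nM) for His-tagged CRBN-DDB1 (2 nM), detected via anti-6His Tb cryptate (0.4 nM); buffer HEPES pH 7.5 with TCEP, Brij-35, NaCl, BSA. One-hour room-temperature incubation, HTRF signal read, IC50 by four-parameter curve.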

IKZF2 = IKZF2 (Homo sapiens (Human), UniProt Q96SW2+Q9UKS7); assay: In vitro IKZF2 HiBit Assay (HEK293T Flp-in-HiBiT cells); assay type: cell-based; settings: HEK293T Flp-in-HiBiT cells, 6 hrs incubation; for DC50: read-out: IKZF2 HiBit DC50; for Dmax: HEK-293T, read-out: IKZF2 HiBit Dmax (%)
IKZF2, sequence (Q9UKS7 whole entry): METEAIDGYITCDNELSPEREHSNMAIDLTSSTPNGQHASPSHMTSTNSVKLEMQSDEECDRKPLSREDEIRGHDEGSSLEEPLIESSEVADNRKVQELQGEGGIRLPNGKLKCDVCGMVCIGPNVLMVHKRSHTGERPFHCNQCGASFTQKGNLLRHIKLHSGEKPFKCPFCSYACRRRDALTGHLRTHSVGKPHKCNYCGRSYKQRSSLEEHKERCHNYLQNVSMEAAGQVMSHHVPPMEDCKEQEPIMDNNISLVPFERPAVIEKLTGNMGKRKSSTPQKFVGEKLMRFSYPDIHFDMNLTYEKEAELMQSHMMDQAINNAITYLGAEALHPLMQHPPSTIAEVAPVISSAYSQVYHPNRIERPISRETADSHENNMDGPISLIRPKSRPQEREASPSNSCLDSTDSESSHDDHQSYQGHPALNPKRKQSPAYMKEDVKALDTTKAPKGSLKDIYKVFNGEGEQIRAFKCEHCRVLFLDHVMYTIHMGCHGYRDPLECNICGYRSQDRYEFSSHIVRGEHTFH
IKZF2, sequence (Q96SW2 whole entry): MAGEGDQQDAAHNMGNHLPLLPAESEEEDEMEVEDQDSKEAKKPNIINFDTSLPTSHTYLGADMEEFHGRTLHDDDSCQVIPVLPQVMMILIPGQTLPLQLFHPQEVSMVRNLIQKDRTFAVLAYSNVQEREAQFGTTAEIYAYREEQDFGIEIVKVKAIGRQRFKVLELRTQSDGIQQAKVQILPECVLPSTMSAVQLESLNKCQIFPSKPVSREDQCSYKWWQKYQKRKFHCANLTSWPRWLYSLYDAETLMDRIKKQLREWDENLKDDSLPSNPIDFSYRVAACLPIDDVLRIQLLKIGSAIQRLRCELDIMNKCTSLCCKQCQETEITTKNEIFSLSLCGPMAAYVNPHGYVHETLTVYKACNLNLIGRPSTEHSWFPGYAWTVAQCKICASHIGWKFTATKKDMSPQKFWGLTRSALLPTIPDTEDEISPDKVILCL
IKZF2, sequence (Q16531 2-1140 partner): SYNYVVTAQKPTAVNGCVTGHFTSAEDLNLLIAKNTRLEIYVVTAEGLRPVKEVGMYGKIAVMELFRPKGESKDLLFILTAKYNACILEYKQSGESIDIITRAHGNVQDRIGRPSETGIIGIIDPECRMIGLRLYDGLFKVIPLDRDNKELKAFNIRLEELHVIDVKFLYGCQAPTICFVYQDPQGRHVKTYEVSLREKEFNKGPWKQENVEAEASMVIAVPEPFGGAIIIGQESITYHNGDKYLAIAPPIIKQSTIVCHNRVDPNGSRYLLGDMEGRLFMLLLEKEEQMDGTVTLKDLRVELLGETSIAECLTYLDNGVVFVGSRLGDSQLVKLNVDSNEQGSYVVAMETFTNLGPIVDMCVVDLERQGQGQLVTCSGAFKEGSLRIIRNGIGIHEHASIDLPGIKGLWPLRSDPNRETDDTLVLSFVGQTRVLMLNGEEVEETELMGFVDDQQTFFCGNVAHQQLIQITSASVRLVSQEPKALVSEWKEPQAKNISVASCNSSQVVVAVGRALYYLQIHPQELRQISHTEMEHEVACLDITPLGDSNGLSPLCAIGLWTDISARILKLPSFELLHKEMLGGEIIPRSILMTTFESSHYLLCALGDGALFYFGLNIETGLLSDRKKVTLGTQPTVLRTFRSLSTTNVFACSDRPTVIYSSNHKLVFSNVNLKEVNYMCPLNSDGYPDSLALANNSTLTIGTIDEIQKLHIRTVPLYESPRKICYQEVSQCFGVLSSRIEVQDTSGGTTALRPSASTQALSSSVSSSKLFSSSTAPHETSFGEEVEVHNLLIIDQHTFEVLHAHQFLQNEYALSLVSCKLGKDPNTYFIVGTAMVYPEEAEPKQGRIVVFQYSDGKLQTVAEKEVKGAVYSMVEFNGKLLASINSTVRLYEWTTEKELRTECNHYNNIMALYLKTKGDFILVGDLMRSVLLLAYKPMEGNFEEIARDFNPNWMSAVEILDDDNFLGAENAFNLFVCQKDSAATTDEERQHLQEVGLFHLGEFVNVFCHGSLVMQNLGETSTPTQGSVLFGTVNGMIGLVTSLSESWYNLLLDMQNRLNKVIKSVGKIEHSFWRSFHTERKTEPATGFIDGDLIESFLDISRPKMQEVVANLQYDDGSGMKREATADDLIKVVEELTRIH
How it was run: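 Remaining tagged Helios was read as lytic HiBiT/LgBiT luminescence normalized to DMSO, yielding binned DC50 and Dmax values. Treatment ran 6 h, with compounds at 11 three-fold doses diluted from 1 mM and 0.1% final DMSO. The cells were HEK293T Flp-in with CRISPR knock-in of HiBiT at the IKZF2 N-terminus.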

IKZF1 = IKZF1 (Homo sapiens (Human), UniProt Q13422+Q96SW2); assay: In vitro IKZF1 HiBit Assay (HEK293T Flp-in-HiBiT-IKZF1 stable cell line); assay type: cell-based; settings: HEK293T Flp-in-HiBiT-IKZF1 stable cell line, 6 hrs incubation; for DC50: read-out: IKZF1 HiBit DC50; for Dmax: HEK-293T, read-out: IKZF1 HiBit Dmax (%)
IKZF1, sequence (Q13422 whole entry): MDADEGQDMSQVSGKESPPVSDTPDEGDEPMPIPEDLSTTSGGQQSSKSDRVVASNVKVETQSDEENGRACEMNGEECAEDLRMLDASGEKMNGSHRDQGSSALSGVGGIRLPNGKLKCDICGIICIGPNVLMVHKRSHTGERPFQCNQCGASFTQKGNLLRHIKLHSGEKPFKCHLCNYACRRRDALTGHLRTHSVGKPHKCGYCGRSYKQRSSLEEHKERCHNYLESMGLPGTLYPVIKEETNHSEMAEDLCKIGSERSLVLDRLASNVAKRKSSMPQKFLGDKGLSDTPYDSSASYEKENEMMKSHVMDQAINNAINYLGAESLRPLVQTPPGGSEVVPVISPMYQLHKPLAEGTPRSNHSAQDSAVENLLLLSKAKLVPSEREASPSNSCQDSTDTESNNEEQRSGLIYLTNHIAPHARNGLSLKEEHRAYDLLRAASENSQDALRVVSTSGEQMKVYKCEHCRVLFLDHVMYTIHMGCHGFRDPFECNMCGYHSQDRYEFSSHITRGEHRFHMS
IKZF1, sequence (Q96SW2 whole entry): as the sequence (Q96SW2 whole entry) above
IKZF1, sequence (Q16531 2-1140 partner): as the sequence (Q16531 2-1140 partner) above
How it was run: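 Degradation was measured as loss of luminescence from the HiBiT-IKZF1 tag after 6 h compound treatment, with 0.1% final DMSO, in stable HEK293T Flp-in cells. Values were normalized to DMSO, giving the 50% degradation concentration and the maximal degradation range.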

CRBN/DDB1, sequence (Q96SW2 whole entry, species assumed): as the sequence (Q96SW2 whole entry) above
CRBN/DDB1, sequence (Q16531 whole entry partner, species assumed): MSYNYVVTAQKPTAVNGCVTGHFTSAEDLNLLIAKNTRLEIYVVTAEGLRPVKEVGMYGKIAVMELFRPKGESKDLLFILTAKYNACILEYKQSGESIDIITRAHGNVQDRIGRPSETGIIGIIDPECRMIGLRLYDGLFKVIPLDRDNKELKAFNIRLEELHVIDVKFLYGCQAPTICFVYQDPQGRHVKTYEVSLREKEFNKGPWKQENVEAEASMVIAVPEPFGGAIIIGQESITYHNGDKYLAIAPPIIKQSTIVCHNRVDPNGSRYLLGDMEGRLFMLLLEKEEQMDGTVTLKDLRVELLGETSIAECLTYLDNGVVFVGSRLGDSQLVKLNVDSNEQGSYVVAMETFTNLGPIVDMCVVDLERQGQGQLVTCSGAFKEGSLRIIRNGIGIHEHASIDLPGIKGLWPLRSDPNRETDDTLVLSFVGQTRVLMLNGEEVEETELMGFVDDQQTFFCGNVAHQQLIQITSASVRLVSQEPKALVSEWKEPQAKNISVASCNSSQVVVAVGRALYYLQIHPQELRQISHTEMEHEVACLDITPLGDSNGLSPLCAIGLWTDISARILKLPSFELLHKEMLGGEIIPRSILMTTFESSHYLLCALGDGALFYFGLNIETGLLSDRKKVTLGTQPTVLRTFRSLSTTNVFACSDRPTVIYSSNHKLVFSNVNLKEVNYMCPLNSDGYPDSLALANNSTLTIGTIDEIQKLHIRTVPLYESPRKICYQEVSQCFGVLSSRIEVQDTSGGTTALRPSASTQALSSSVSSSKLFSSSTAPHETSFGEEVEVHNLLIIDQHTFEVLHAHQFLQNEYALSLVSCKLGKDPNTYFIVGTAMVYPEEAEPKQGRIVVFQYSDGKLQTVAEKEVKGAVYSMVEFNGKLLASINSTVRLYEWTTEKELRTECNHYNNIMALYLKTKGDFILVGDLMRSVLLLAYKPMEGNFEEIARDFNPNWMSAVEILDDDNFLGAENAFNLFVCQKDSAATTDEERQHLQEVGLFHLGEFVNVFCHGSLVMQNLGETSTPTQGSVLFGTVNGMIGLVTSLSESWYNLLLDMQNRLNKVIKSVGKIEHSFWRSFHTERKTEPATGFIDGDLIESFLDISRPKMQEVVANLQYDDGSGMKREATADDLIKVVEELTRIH

SMILES	IC50 (CRBN/DDB1)	DC50 (IKZF2)	Dmax (IKZF2)	DC50 (IKZF1)	Dmax (IKZF1)
Cn1ccc2c(CN3CCC(n4cccn4)CC3)cc(-c3ccc4c(c3)CN(C3CCC(=O)NC3=O)C4=O)nc21 (stereo not shown) [Example 94, 3-(5-(4-((4-(1H-pyrazol-1-yl)piperidin-1-yl)methyl)-1-methyl-1H-pyrrolo[2,3-b]pyridin-6-yl)-1-oxoisoindolin-2-yl) piperidine-2,6-dione]	< 100 nM	1 to 10 nM	60 to 80%	> 10000 nM	< 20%
Cn1ccc2c(CN3CCN4CCCC4C3)cc(-c3ccc4c(c3)CN(C3CCC(=O)NC3=O)C4=O)nc21 (stereo not shown) [Example 95, 3-(5-(4-((hexahydropyrrolo[1,2-a]pyrazin-2 (1H)-yl)methyl)-1-methyl-1H-pyrrolo[2,3-b]pyridin-6-yl)-1-oxoisoindolin-2-yl) piperidine-2,6-dione]	100 to 500 nM	1 to 10 nM	60 to 80%	> 10000 nM	< 20%
Cn1ccc2c(CN3CCC(CO)C3)cc(-c3ccc4c(c3)CN(C3CCC(=O)NC3=O)C4=O)nc21 (stereo not shown) [Example 96, 3-(5-(4-((3-(hydroxymethyl)pyrrolidin-1-yl)methyl)-1-methyl-1H-pyrrolo[2,3-b]pyridin-6-yl)-1-oxoisoindolin-2-yl) piperidine-2,6-dione]	100 to 500 nM	1 to 10 nM	> 80%	10 to 100 nM	20 to 40%
Cn1ccc2c(Cn3cnc4ccccc43)cc(-c3ccc4c(c3)CN(C3CCC(=O)NC3=O)C4=O)nc21 (stereo not shown) [Example 97, 3-(5-(4-((1H-benzo[d]imidazol-1-yl)methyl)-1-methyl-1H-pyrrolo[2,3-b]pyridin-6-yl)-1-oxoisoindolin-2-yl) piperidine-2,6-dione]	< 100 nM	10 to 100 nM	40 to 60%	> 10000 nM	< 20%
CCn1ccc2c(CN3CCC3)cc(-c3ccc4c(c3)CN(C3CCC(=O)NC3=O)C4=O)nc21 (stereo not shown) [Example 98, 3-(5-(4-(azetidin-1-ylmethyl)-1-ethyl-1H-pyrrolo[2,3-b]pyridin-6-yl)-1-oxoisoindolin-2-yl) piperidine-2,6-dione]	< 100 nM	1 to 10 nM	> 80%	> 10000 nM	< 20%
Cn1ccnc1N1CCN(Cc2cc(-c3ccc4c(c3)CN(C3CCC(=O)NC3=O)C4=O)nc3c2ccn3C)CC1 (stereo not shown) [Example 99, 3-(5-(1-methyl-4-((4-(1-methyl-1H-imidazol-2-yl)piperazin-1-yl)methyl)-1H-pyrrolo[2,3-b]pyridin-6-yl)-1-oxoisoindolin-2-yl) piperidine-2,6-dione]	100 to 500 nM	10 to 100 nM	40 to 60%	> 10000 nM	< 20%
Cn1ccc2c(CN3CC4(CCOCC4)C3)cc(-c3ccc4c(c3)CN(C3CCC(=O)NC3=O)C4=O)nc21 (stereo not shown) [Example 100, 3-(5-(4-((7-oxa-2-azaspiro[3.5]nonan-2-yl)methyl)-1-methyl-1H-pyrrolo[2,3-b]pyridin-6-yl)-1-oxoisoindolin-2-yl) piperidine-2,6-dione]	100 to 500 nM	< 1 nM	> 80%	10 to 100 nM	20 to 40%
Cn1ccc2c(CN3CCCC3CO)cc(-c3ccc4c(c3)CN(C3CCC(=O)NC3=O)C4=O)nc21 (stereo not shown) [Example 101, 3-(5-(4-((2-(hydroxymethyl)pyrrolidin-1-yl)methyl)-1-methyl-1H-pyrrolo[2,3-b]pyridin-6-yl)-1-oxoisoindolin-2-yl) piperidine-2,6-dione]	100 to 500 nM	1 to 10 nM	> 80%	> 10000 nM	< 20%
COC1CCN(Cc2cc(-c3ccc4c(c3)CN(C3CCC(=O)NC3=O)C4=O)nc3c2ccn3C)CC1 (stereo not shown) [Example 102, 3-(5-(4-((4-methoxypiperidin-1-yl)methyl)-1-methyl-1H-pyrrolo[2,3-b]pyridin-6-yl)-1-oxoisoindolin-2-yl) piperidine-2,6-dione]	100 to 500 nM	< 1 nM	> 80%	10 to 100 nM	20 to 40%
Cn1ccc2c(CN3CCC4(CCCC4)CC3)cc(-c3ccc4c(c3)CN(C3CCC(=O)NC3=O)C4=O)nc21 (stereo not shown) [Example 103, 3-(5-(4-((8-azaspiro[4.5]decan-8-yl)methyl)-1-methyl-1H-pyrrolo[2,3-b]pyridin-6-yl)-1-oxoisoindolin-2-yl) piperidine-2,6-dio]	100 to 500 nM	1 to 10 nM	> 80%	10 to 100 nM	20 to 40%
O=C1CCC(N2Cc3cc(-c4cc(CN5CCCC5)c5ncccc5n4)ccc3C2=O)C(=O)N1 (stereo not shown) [Example 104, 3-(1-oxo-5-(4-(pyrrolidin-1-ylmethyl)-1,5-naphthyridin-2-yl)isoindolin-2-yl) piperidine-2,6-dione]	500 to 1000 nM	1 to 10 nM	> 80%	> 10000 nM	20 to 40%
COCC1CCCN1Cc1cc(-c2ccc3c(c2)CN(C2CCC(=O)NC2=O)C3=O)nc2c1ccn2C (stereo not shown) [Example 106, 3-(5-(4-((2-(methoxymethyl)pyrrolidin-1-yl)methyl)-1-methyl-1H-pyrrolo[2,3-b]pyridin-6-yl)-1-oxoisoindolin-2-yl) piperidine-2,6-dione]	100 to 500 nM	1 to 10 nM	> 80%	> 10000 nM	< 20%
Cn1ccc2c(CN3CCn4nccc4C3)cc(-c3ccc4c(c3)CN(C3CCC(=O)NC3=O)C4=O)nc21 (stereo not shown) [Example 107, 3-(5-(4-((6,7-dihydropyrazolo[1,5-a]pyrazin-5 (4H)-yl)methyl)-1-methyl-1H-pyrrolo[2,3-b]pyridin-6-yl)-1-oxoisoindolin-2-yl) piperidine-2,6-dione]	100 to 500 nM	10 to 100 nM	40 to 60%	> 10000 nM	< 20%
C[C@@H]1CC[C@@H](C)N1Cc1cc(-c2ccc3c(c2)CN(C2CCC(=O)NC2=O)C3=O)nc2c1ccn2C (stereo partly drawn) [Example 108, 3-(5-(4-(((2R,5R)-2,5-dimethylpyrrolidin-1-yl)methyl)-1-methyl-1H-pyrrolo[2,3-b]pyridin-6-yl)-1-oxoisoindolin-2-yl) piperidine-2,6-dione]	500 to 1000 nM	1 to 10 nM	60 to 80%	> 10000 nM	< 20%
COCC1CCN(Cc2cc(-c3ccc4c(c3)CN(C3CCC(=O)NC3=O)C4=O)nc3c2ccn3C)C1 (stereo not shown) [Example 109, 3-(5-(4-((3-(methoxymethyl)pyrrolidin-1-yl)methyl)-1-methyl-1H-pyrrolo[2,3-b]pyridin-6-yl)-1-oxoisoindolin-2-yl) piperidine-2,6-dione]	100 to 500 nM	< 1 nM	> 80%	1 to 10 nM	20 to 40%
Cn1ccc2nc(-c3ccc4c(c3)CN(C3CCC(=O)NC3=O)C4=O)cc(CN3CCC3)c21 (stereo not shown) [Example 110, 3-(5-(7-(azetidin-1-ylmethyl)-1-methyl-1H-pyrrolo[3,2-b]pyridin-5-yl)-1-oxoisoindolin-2-yl) piperidine-2,6-dione]	500 to 1000 nM	1 to 10 nM	> 80%	> 10000 nM	< 20%
O=C1CCC(N2Cc3cc(-c4cc(CN5CC(O)C5)c5cc[nH]c5n4)ccc3C2=O)C(=O)N1 (stereo not shown) [Example 111, 3-(5-(4-((3-hydroxyazetidin-1-yl)methyl)-1H-pyrrolo[2,3-b]pyridin-6-yl)-1-oxoisoindolin-2-yl) piperidine-2,6-dione]	100 to 500 nM	10 to 100 nM	60 to 80%	> 10000 nM	< 20%
Cn1ccc2c(CN3CC4(CCC4)C3)cc(-c3ccc4c(c3)CN(C3CCC(=O)NC3=O)C4=O)nc21 (stereo not shown) [Example 112, 3-(5-(4-((2-azaspiro[3.3]heptan-2-yl)methyl)-1-methyl-1H-pyrrolo[2,3-b]pyridin-6-yl)-1-oxoisoindolin-2-yl) piperidine-2,6-dione]	100 to 500 nM	< 1 nM	> 80%	10 to 100 nM	20 to 40%
Cn1ccc2c(CN3CCCC3(C)C)cc(-c3ccc4c(c3)CN(C3CCC(=O)NC3=O)C4=O)nc21 (stereo not shown) [Example 113, 3-(5-(4-((2,2-dimethylpyrrolidin-1-yl)methyl)-1-methyl-1H-pyrrolo[2,3-b]pyridin-6-yl)-1-oxoisoindolin-2-yl) piperidine-2,6-dione]	1000 to 5000 nM	< 1 nM	60 to 80%	10 to 100 nM	20 to 40%
Cn1ccc2c(N3CCCC3)cc(-c3ccc4c(c3)CN(C3CCC(=O)NC3=O)C4=O)nc21 (stereo not shown) [Example 114, 3-(5-(1-methyl-4-(pyrrolidin-1-yl)-1H-pyrrolo[2,3-b]pyridin-6-yl)-1-oxoisoindolin-2-yl) piperidine-2,6-dione]	1000 to 5000 nM	10 to 100 nM	20 to 40%	> 10000 nM	< 20%
